Laboratory results: PMC6100582 (Molecules : A Journal of Synthetic Chemistry and Natural …, 2018)

Assays:
[1] = tested on: panel of nine different human cancer cell lines; assay: Cytostatic activity, panel of nine human cancer cell lines; assay type: cell-based; details: all nine tested cell lines, read-out: IC50 (range over all tested cell lines)
Method: To gain insight into cytotoxicity of newly synthesized compounds 4a–f and 5a–f, their cytostatic activity was evaluated in vitro against a panel of nine different human cancer cell lines, representing various solid tumor types including pancreatic adenocarcinoma (Capan-1), chronic myeloid leukemia (Hap1), colorectal carcinoma (HCT-116), lung carcinoma (NCI-H460), acute lymphoblastic leukemia (DND-41), acute myeloid leukemia (HL-60), chronic myeloid leukemia (K-562), multiple myeloma (MM.1S) and non-Hodgkin lymphoma (Z-138).
Cytostatic activity was evaluated in vitro on nine different types of human tumor cell lines: Capan-1, Hap1, HCT-116, and NCI-H460, as well as hematological tumors such as DND-41, HL-60, K-562, MM.1S and Z-138 as described previously. All human tumor cell lines were acquired from the American Type Culture Collection (ATCC, Manassas, VA, USA), except for the DND-41 cell line which was purchased from the Deutsche Sammlung von Mikroorganismen und Zellkulturen (DSMZ Leibniz-Institut, Braunschweig, Germany) and the Hap1 cell line which was purchased from Horizon Discovery (Waterbeach, UK). […] The plates were incubated and monitored at 37 °C for 72 h in an IncuCyte (Essen BioScience Inc., Ann Arbor, MI, USA) for real-time imaging. […]

[2] = tested on: panel of bacteria, Mycobacterium strains and fungi; assay: Antimicrobial screening, panel of bacteria, Mycobacterium strains and fungi; assay type: cell-based; details: S. aureus, S. pneumoniae, A. baumannii and C. albicans ATCC 90028

| Structure (SMILES) | IC50 [1] [µM] | MIC values (range over strains) [2] [µg/mL] |
| --- | --- | --- |
| COc1cc(NC(C)CCCNC(=O)/C=C/C(=O)Nc2cccc(F)c2)c2ncccc2c1 (centres unmarked) [Compound 4a, (2E)-N-(3-Fluorophenyl)-N′-{4-[(6-methoxyquinolin-8-yl)amino]pentyl}but-2-enediamide] | 5.7 to 31.2 | – |
| COc1cc(NC(C)CCCNC(=O)/C=C/C(=O)Nc2ccc(Cl)cc2)c2ncccc2c1 (centres unmarked) [Compound 4d, (2E)-N-(4-Chlorophenyl)-N′-{4-[(6-methoxyquinolin-8-yl)amino]pentyl}but-2-enediamide] | – | 6.1 to 12.5 |
